According to patent US7115642B2, “Substituted diphenyl isoxazoles, pyrazoles and oxadiazoles useful for treating HCV infection” (priority 2003, dated 2006):
Read-outs that look alike come from different tables or passages of the source.

Legend:
[1] = Cytotoxicity assay (Cell Titer Glo); type: cell-based; settings: human; 48 hr with compound, ATP-dependent Cell Titer Glo assay; read-out: IC50 in cytotoxicity assay (number of viable cells)
Experimental: Compounds 67, 167, 169, 13, 1, 145, 29, 119, 63, 31, 39, 103, 123, 121, 97, 129, 79, 111, 85, 89, 109, 127, 131, 95, 47, 57, 69, 165, 161, 163, 3, 137, 15, 141, 41, 53, 33, 113, 93, 105, 77, 91, 81, 83, 35, 27, 65, 7, 135, 51, 139, 51, 49, 143, 5, 149, 11, 37, 21, 45, 61, 75, 23, 125, 73, 43, 171 and 101 were tested in a cytotoxicity assay with liver cells including an HCV replicon (5-2 Luc cells, 9–13 cells or Huh-7 cells). In the assay, cells were seeded onto 96-well plates (approx. 7500 cells/well in a volume of 90 μl) and grown for 24 hr at 37° C. On day 2, various concentrations of test compound (in a volume of 10 μl) were added to the wells and the cells were grown for an additional 48 hr at 37° C. On day 4, an ATP-dependent R-Luciferase assay (Cell Titer Glo assay) was performed to determine the number of viable cells.

[2] = tested on: HCV nonstructural protein NS5A or NS3 in 9–13 replicon cells; experiment: Quantitative Western blot assay; type: cell-based, Hepatitis C virus; settings: read-out: Western IC50
Experimental: Alternatively, the inhibitory activity of the compounds can be confirmed using a quantitative Western immunoblot assay utilizing antibodies specific for HCV non-structural proteins, such as NS3, NS4A NS5A and NS5B. In one embodiment of this assay, replicon cells are treated with varying concentrations of test compound to determine the concentration of test compound that yields a 50% reduction in the amount of a non-structural protein produced as compared to a control sample (IC50). A single non-structural protein may be quantified or multiple non-structural proteins may be quantified. Antibodies suitable for carrying out such immunoblot assays are available commercially (e.g., from BIODESIGN International, Saco, Me.).
Certain exemplary compounds of the invention were also tested for their ability to inhibit HCV replication using a quantitative Western blot analysis with antibodies specific for the HCV nonstructural protein NS5A or NS3. Actively dividing 9–13 replicon cells were seeded into Swell plates at a density of 1×10^5 cells/well in a volume of 2 ml/well and incubated at 37° C. and 5% CO2 for 24 hours. Various concentrations of test compounds (in a volume of 10 ul) were added to the wells and the cells incubated for another 48 hours. Protein samples were prepared from the cultured cells, resolved on a SDS-PAGE gel and transferred to a nitrocellulose membrane. The membrane was blocked with 5% non-fat milk in PBS for 1 hour at room temperature. Primary antibody (anti NS5A antibody; BIODESIGN International, Saco, Me. or anti NS3 antibody, Rigel) incubation was performed for 1 hour at room temperature, after which the membrane was washed 3 times (for 15 min per time) with PBST (PBS plus 0.1% Tween 20). Horseradish peroxidase conjugated secondary antibody incubation was performed for 1 hour at room temperature and the membrane was washed 3 times (for 15 min per time) with PBST. The membrane was then soaked in substrate solution (Pierce) and exposed to a film or quantified using an imager. In this assay, the amount of test compound that yielded a 50% reduction in the amount of NS5A or NS3 protein translated as compared to a control sample (IC50) was determined.
In TABLE 1, a value of “+” indicates an IC50 of 10 μM or less in the specified assay; a value of “−” indicates an IC50 of greater than 10 μM in the specified assay.

[3] = tested on: HCV replicon (5-2 Luc replicon-comprising cells); experiment: HCV replicon assay (luciferase); type: cell-based, Hepatitis C virus; settings: read-out: Replicon IC50
Procedure, shortened: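 Readout: IC50 from a 50% drop in luciferase signal (Bright-Glo, luminometer), scored + (≤10 μM) or − (>10 μM). Compounds added at various concentrations to 5-2 Luc replicon cells (Huh7 background), pre-incubated 24 h, then incubated 24 h more before reading.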

[4] = Hepatitis C virus, 9–13 replicon cells, NS5A or NS3 Western blot
[5] = Hepatitis C virus, 5-2 Luc replicon cells, luciferase readout
[6] = 9–13 replicon cells, NS5A or NS3 Western blot
[7] = 5-2 Luc replicon cells, luciferase readout

Structure (SMILES)	IC50 at 48 h [1] [µM]	IC50 [2, 4] [µM]	IC50 [3, 5] [µM]	IC50 [2, 6] [µM]	IC50 [3, 7] [µM]	other results
COC(=O)c1ccc(Cl)c(-c2cc(-c3cccc(NC(=O)C(Cl)Cl)c3)on2)c1Cl [Compound 135, 2,2-Dichloro-N-[3-[3-(3-carbomethoxy-2,6-dichlorophenyl)-5-isoxazolyl]phenyl]Acetamide]	> 10	> 10	> 10			
O=C(Nc1cc(-c2cc(-c3c(Cl)cccc3Cl)no2)ccc1F)C(Cl)Cl [Compound 1, 2,2-Dichloro-N-[3-[3-(2,6-dichlorophenyl)-5-isoxazolyl]-6-fluorophenyl]Acetamide]	> 10	< 10	< 10			
Cc1cccc(-c2cc(-c3cccc(NC(=O)C(Cl)Cl)c3)on2)c1C [Compound 163, 2,2-Dichloro-N-[3-[3-(2,3-dimethylphenyl)-5-isoxazolyl]phenyl]Acetamide]	> 10	> 10	> 10			
Cc1ccc(F)c(-c2cc(-c3cccc(NC(=O)C(Cl)Cl)c3)on2)c1Cl [Compound 15, 2,2-Dichloro-N-[3-[3-(2-chloro-6-fluoro-3-methylphenyl)-5-isoxazolyl]phenyl]Acetamide]	> 10	< 10	< 10			
NC1CCN(c2cccc(Cl)c2-c2cc(-c3cccc(NC(=O)C(Cl)Cl)c3)on2)C1 (stereo not shown) [Compound 674]				< 10	< 10	
O=C(Nc1cccc(-c2cc(-c3c(Cl)cc(OCCN4CCOCC4)cc3Cl)no2)c1)C(Cl)Cl [Compound 75, 2,2-Dichloro-N-[3-[3-[2,6-dichloro 4-(N-morpholinoethyleneoxy)phenyl]-5-isoxazolyl]-phenyl]Acetamide]				< 10	> 10	
CN(C)C(=O)NC1CCN(c2cccc(Cl)c2-c2cc(-c3cccc(NC(=O)C(Cl)Cl)c3)on2)C1 (stereo not shown) [Compound 676]				< 10	< 10	
O=C(Nc1ccc(F)c(-c2cc(-c3c(Cl)cccc3Cl)no2)c1)C(Cl)Cl [Compound 13, 2,2-Dichloro-N-[3-[3-(2,6-dichlorophenyl)-5-isoxazolyl]4-fluorophenyl]Acetamide]	> 10	< 10	< 10			
CC(C)Oc1cccc(Cl)c1-c1cc(-c2cccc(NC(=O)C(Cl)Cl)c2)on1 [Compound 706]				< 10	< 10	
COC(=O)[C@@H](NC(=O)c1cccc(Cl)c1-c1cc(-c2cccc(NC(=O)C(Cl)Cl)c2)on1)C(C)C [Compound 695]				< 10	> 10	
COC(=O)C(NC(=O)c1cccc(Cl)c1-c1cc(-c2cccc(NC(=O)C(Cl)Cl)c2)on1)C(C)C (stereo not shown) [Compound 696]				< 10	< 10	
O=C(Nc1cccc(-c2cc(-c3c(Cl)cccc3Cl)on2)c1)C(Cl)Cl [Compound 5, 2,2-Dichloro-N-[3-[5-(2,6-dichlorophenyl)-3-isoxazolyl]phenyl]Acetamide]	> 10	< 10	< 10			
CSc1cccc(F)c1-c1cc(-c2cccc(NC(=O)C(Cl)Cl)c2)on1 [Compound 11, 2,2-Dichloro-N-[3-[3-(2-fluoro-6-thiomethylphenyl)-5-isoxazolyl]phenyl]Acetamide]				< 10	< 10	
O=C(Nc1cccc(-c2cc(-c3c(Cl)cccc3C(=O)N3CCN(c4ccccc4)CC3)no2)c1)C(Cl)Cl [Compound 690]				< 10	< 10	
O=C(Nc1cccc(-c2cc(-c3c(F)cccc3Cl)no2)c1)C(Cl)Cl [Compound 27, 2,2-Dichloro-N-[3-[3-(2-chloro-6-fluorophenyl)-5-isoxazolyl]phenyl]Acetamide]	> 5	< 10	< 10			
CC(C)(C)OC(=O)NC1CCN(c2cccc(Cl)c2-c2cc(-c3cccc(NC(=O)C(Cl)Cl)c3)on2)C1 (stereo not shown) [Compound 672]				< 10	< 10	
CC(C)(C)OC(=O)N1CCN(C(=O)c2cccc(Cl)c2-c2cc(-c3cccc(NC(=O)C(Cl)Cl)c3)on2)CC1 [Compound 698]				< 10	> 10	
COC(=O)c1cccc(OC)c1-c1cc(-c2cccc(NC(=O)C(Cl)Cl)c2)on1 [Compound 704]				> 10	> 10	
CN(C)C(=O)c1cccc(Cl)c1-c1cc(-c2cccc(NC(=O)C(Cl)Cl)c2)on1 [Compound 692]				< 10	< 10	
CC(C)(C)OC(=O)c1cccc(F)c1-c1cc(-c2cccc(NC(=O)C(Cl)Cl)c2)on1 [Compound 701]				< 10	< 10	
O=C(Nc1cccc(-c2cc(-c3c(Cl)cccc3Cl)no2)c1)C(Cl)Cl [Compound 9, 2,2-Dichloro-N-[3-[3-(2,6-dichlorophenyl)-5-isoxazolyl]phenyl]Acetamide]						IC50 ([2]; Hepatitis C virus): < 10 µM; IC50 ([3]; Hepatitis C virus): < 10 µM; melting point: 167 °C
O=C(NCc1ccccn1)c1cccc(Cl)c1-c1cc(-c2cccc(NC(=O)C(Cl)Cl)c2)on1 [Compound 694]				< 10	< 10	
O=C(CI)Nc1cccc(-c2cc(-c3c(Cl)cccc3Cl)no2)c1 [Compound 101, 2-Iodo-N-[3-[3-(2,6-dichlorophenyl)-5-isoxazolyl]phenyl]Acetamide]	> 10	> 10	< 10			
O=C(Nc1cccc(-c2cc(-c3c(Cl)cccc3OCC3CC3)no2)c1)C(Cl)Cl [Compound 709]				< 10	< 10	
O=C(Nc1cccc(-c2cc(-c3cccc(Cl)c3Cl)no2)c1)C(Cl)Cl [Compound 3, 2,2-Dichloro-N-[3-[3-(2,3-dichlorophenyl)-5-isoxazolyl]phenyl]Acetamide]	> 10	< 10	> 10			
COC(=O)c1cccc(F)c1-c1cc(-c2cccc(NC(=O)C(Cl)Cl)c2)on1 [Compound 705]				< 10	< 10	
COc1cccc(C(=O)O)c1-c1cc(-c2cccc(NC(=O)C(Cl)Cl)c2)on1 [Compound 702]				< 10	> 10	
CCOc1cccc(Cl)c1-c1cc(-c2cccc(NC(=O)C(Cl)Cl)c2)on1 [Compound 708]				< 10	< 10	
O=C(Nc1cccc(-c2cc(-c3c(F)cccc3S(=O)(=O)N3CCOCC3)no2)c1)C(Cl)Cl [Compound 21, 2,2-Dichloro-N-[3-[3-[2-fluoro-(6-N-morpholinosulfamoyl)phenyl]-5-isoxazolyl]-phenyl]Acetamide]				< 10	< 10	
O=C(Nc1cccc(-c2cc(-c3c(Cl)cccc3C(=O)N3CCN(Cc4ccccc4)CC3)no2)c1)C(Cl)Cl [Compound 697]				< 10	> 10	
